Results: patent US20120316144A1, “ANTIFUNGAL AGENT” (priority 2010, published 2012)

Legend:
[1] = tested on: Malassezia; assay: Antifungal (Malassezia) paper disk test of mastic normal-hexane extract and squalene; type: cell-based; conditions: Mueller-Hinton media, squalene 25 mg/disk alone
Experimental: Mastic normal-hexane extract (MH) was dissolved in acetone. Then, paper disks for antibiotic assay which are the same as the paper disks for antibiotic assay used in the third example were impregnated with the obtained MH solution, to prepare a disk to be tested impregnated with the MH solution of 5 mg/disk, a disk to be tested impregnated with the MH solution of 10 mg/disk, and a disk to be tested impregnated with the MH solution of 20 mg/disk. These disks to be tested were prepared two each, respectively. Further, the S solution, which was obtained by dissolving squalene (S) in acetone, was added to each of some disks to be tested prepared in this way by 25 mg/disk, to prepare disks of mixture of the mastic normal-hexane extract and squalene (MH+S) as well. Further, as standard controls, paper disks for antibiotic assay which are the same as the paper disks for antibiotic assay used in the third example were impregnated with the S solution of 25 mg/disk, to prepare a disk to be tested. Then, the respective disks to be tested were vacuum-dried to eliminate the acetone. Further, the Malassezia prepared to be approximately 10^6 CFU/ml was applied to the Mueller-Hinton media. […] Then, the diameters (mm) of antiproliferative circles formed around the respective disks to be tested were measured.

[2] = tested on: Malassezia; assay: Antifungal (Malassezia) paper disk test of fractionated ingredients of mastic normal-hexane extract with squalene; type: cell-based; conditions: for anti-Malassezia activity (in words): combination with squalene, summary of Table 4; for diameter of antiproliferative circle, First time / diameter of antiproliferative circle, Second time / diameter of antiproliferative circle, Average: Malassezia, Mueller-Hinton media, fraction 5 mg/disk + squalene 25 mg/disk; for diameter of antiproliferative circle, Average: average of two runs
Experimental: The fractions fractionated in the first example were respectively dissolved in acetone. Paper disks for antibiotic assay which are the same as the paper disks for antibiotic assay used in the third example were impregnated with the obtained respective fraction solutions of 5 mg/disk. Moreover, squalene was added to each of the paper disks for antibiotic assay by 25 mg/disk, to prepare disks to be tested. Then, the respective disks to be tested were vacuum-dried to eliminate the acetone. Further, the Malassezia prepared to be approximately 10^6 CFU/ml was applied to the Mueller-Hinton media. Next, the respective disks to be tested were placed on the Mueller-Hinton media, and cultured for two days under an aerobic condition at 37° C. Then, the diameters (mm) of antiproliferative circles formed around the respective disks to be tested were measured.

SMILES | Antiproliferative Circles (mm) [1] [mm] | anti-Malassezia activity (in words) [2] | diameter of antiproliferative circle, First time [2] [mm] | diameter of antiproliferative circle, Second time [2] [mm] | diameter of antiproliferative circle, Average [2] [mm]
CC(C)=CCC/C(C)=C/CC/C(C)=C/CC/C=C(\C)CC/C=C(\C)CCC=C(C)C [S, squalene] | 11 | – | – | – | –
CC1(C)CC[C@]2(C)CC[C@]3(C)C(=CC[C@@H]4[C@@]5(C)CC[C@H](O)C(C)(C)[C@@H]5CC[C@]43C)C2C1 (stereo partly drawn) [Fr. 5-2, β-amylin] | – | potent anti-Malassezia activity | – | – | –
CC1(C)C=C2C(=CC[C@]3(C)C2CC[C@@H]2[C@@]4(C)CCC(=O)C(C)(C)[C@@H]4CC[C@]23C)CC1 (stereo partly shown) [Fr. 1, 3-oxo-28-norolean-16,18-diene] | – | potent anti-Malassezia activity | 25 | 22 | 23.5
CC(C)=CCC[C@](C)(O)[C@H]1CC[C@]2(C)C1CCC1[C@@]3(C)CCC(=O)C(C)(C)[C@@H]3CC[C@]12C (stereo partly shown) [Fr. 8, 3-oxo-20-hydroxy-dammar-24-ene] | – | potent anti-Malassezia activity | 25 | 24 | 24.5
CC1(C)CCC2(O)CC[C@]3(C)C(=CC[C@@H]4[C@@]5(C)CCC(=O)C(C)(C)[C@@H]5CC[C@]43C)C2C1 (stereo partly shown) [Fr. 6, 3-oxo-17-hydroxy-norolean-12-ene] | – | potent anti-Malassezia activity | 21 | 19 | 20
CC(C)=CCC[C@H](C)[C@@H]1CC[C@]2(C)C3=C(CC[C@@]12C)[C@@]1(C)CC[C@H](O)C(C)(C)[C@@H]1CC3 [Fr. 5-1, Tirucallol] | – | potent anti-Malassezia activity | – | – | –
CC1(C)CC[C@]2(C=O)CC[C@]3(C)C(=CC[C@@H]4[C@@]5(C)CCC(=O)C(C)(C)[C@@H]5CC[C@]43C)C2C1 (stereo partly shown) [Fr. 3, olean-12-en-3,28-dione] | – | potent anti-Malassezia activity | 25 | 25 | 25
